The values below come from US20170253581A1, “SUBSTITUTED HETEROCYCLES AS c-MYC TARGETING AGENTS” (Northwestern University, priority 2016, published 2017).

A short description of series [1]: Pharmacokinetics in mice after intravenous dosing. The format is in vivo. The note with it: 5 mg/kg intravenously. As for the experimental part:
The pharmacokinetics of NUCC-176242 and NUCC-176248 were studied in mice by administering a dose of 5 mg/kg intravenously and measuring the plasma concentration versus time.

Series [2] can be described thus: In vitro metabolism with mouse liver microsomes and mouse S9 fraction. The format is in vitro ADME. As to conditions: compared with NUCC-176248. As for the experimental part: In vitro metabolism of NUCC-176242 and NUCC-176248 were tested using mouse liver microsomes and a mouse S9 fraction.
A general note: Liver microsomes are vesicles of endoplasmic reticulum, rich in cytochrome P450 enzymes.

For series [3], the target named is Myc/Max binding to DNA (Homo sapiens, UniProt P01106). Briefly: Electrophoretic mobility shift assay (EMSA) of Myc/Max binding to DNA. The format is biochemical. The method in brief:
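Electrophoretic mobility shift assay of Myc/Max binding to DNA. Compounds tested at 200 μM, 100 μM and 50 μM.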

Molecules are shown by their SMILES.

As a reminder, the IC50 is the midpoint of a concentration-inhibition curve.

Myc/Max binding to DNA, sequence (P01106 whole entry): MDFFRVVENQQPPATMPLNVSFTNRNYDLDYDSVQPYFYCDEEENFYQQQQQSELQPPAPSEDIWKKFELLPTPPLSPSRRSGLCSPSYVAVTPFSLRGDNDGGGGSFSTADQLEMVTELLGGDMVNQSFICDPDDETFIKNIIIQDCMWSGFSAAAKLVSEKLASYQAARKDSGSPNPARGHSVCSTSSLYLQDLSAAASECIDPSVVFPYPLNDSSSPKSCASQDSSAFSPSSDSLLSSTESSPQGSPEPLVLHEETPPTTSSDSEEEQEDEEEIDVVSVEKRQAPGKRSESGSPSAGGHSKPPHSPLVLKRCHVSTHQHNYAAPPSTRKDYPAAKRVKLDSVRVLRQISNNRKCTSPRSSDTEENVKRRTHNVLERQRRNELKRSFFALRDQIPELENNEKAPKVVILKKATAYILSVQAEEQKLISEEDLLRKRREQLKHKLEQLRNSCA

For the compound `CCc1ccc(Oc2c(-c3ccc(OCc4ccc(Cl)cc4)cc3O)n[nH]c2C(F)(F)F)cc1` [NUCC-0176242], the “in vivo metabolism (plasma concentration versus time)” value in series [1] is given as “correlated well with the observed in vitro metabolism”. For the same compound, the “metabolism by mouse S9 fraction” value in series [2] was “significantly metabolism by the mouse S9 fraction versus NUCC-176248”. In series [3], the IC50 worked out at 89 µM. For the same compound, in series [3] (EMSA, 100 uM test compound, read-out: Bound DNA (%) (100uM)), the remaining activity at 100 µM amounted to 36%. For the same compound, the remaining activity at 200 µM in series [3] (EMSA, 200 uM test compound, read-out: Bound DNA (%) (200uM)) stood at 2%.
